Source: US11623925B2, “Processes for preparing a diaminopyrimidine derivative or acid addition salt thereof” (YUHAN CORPORATION, priority 2018, dated 2023)
Structures can show the parent of a compound that is named as a salt.

Columns and labels:
[1] = Stability tests: storage at 60° C. and 75% RH for 2 weeks, HPLC analysis; assay type: physicochemical; conditions: for change in the HPLC purity / change in the amount of deacetylated impurities: 2 weeks, in words
Description: (S)-N-(1-(2-((4-amino-3-nitrophenyl)amino)-6-propylpyrimidin-4-yl)pyrrolidin-3-yl) acetamide hydrochloride prepared according to WO 2012/115480 (Amorphous form, Test compound 1) and the crystalline form A of (S)-N-(1-(2-((4-amino-3-nitrophenyl)amino)-6-propylpyrimidin-4-yl)pyrrolidin-3-yl)acetamide hydrochloride prepared in Example 7 (Test compound 2) were stored under the conditions of 60° C. and 75% RH for 2 weeks. The amounts of each test compound and the deacetylated impurities were analyzed with HPLC so as to measure the respective HPLC purities.

[2] = Storage of the amorphous hydrochloride at room temperature; assay type: physicochemical; conditions: stored at room temperature; in words
Description: In addition, WO 2012/115480 has disclosed the step for converting the compound of Formula 1 to a hydrochloride thereof. The converting step comprises reacting the compound of Formula 1 with hydrochloric acid in ethyl acetate, stirring at room temperature for 1 hour, and then filtering the product. It has been found by the present inventors that the hydrochloride of the compound of Formula 1 obtained by said method is in the amorphous form and brings about the problem producing deacetylated impurities in high level when stored at room temperature.

change in the HPLC purity [1]	change in the amount of deacetylated impurities [1]	HPLC purities, Compound ([1]; Storage time: 1 week)	HPLC purities, Deacetylated impurities ([1]; Storage time: 1 week)	HPLC purities, Compound ([1]; Storage time: 2 weeks)	HPLC purities, Deacetylated impurities ([1]; Storage time: 2 weeks)	HPLC purities, Compound ([1]; Storage time: Initial)	HPLC purities, Deacetylated impurities ([1]; Storage time: Initial)	deacetylated impurities produced on storage [2]	SMILES
marked decrease	marked increase	95.5%	3.78%	86.6%	12.7%	98.7%	0.58%	high level	CCCc1cc(N2CC[C@H](NC(C)=O)C2)nc(Nc2ccc(N)c([N+](=O)[O-])c2)n1.Cl [Test compound 1, (S)-N-(1-(2-((4-amino-3-nitrophenyl)amino)-6-propylpyrimidin-4-yl)pyrrolidin-3-yl) acetamide hydrochloride]
no significant change	no significant change	99.6%	0.07%	99.6%	0.07%	99.6%	0.08%	–	CCCc1cc(N2CC[C@H](NC(C)=O)C2)nc(Nc2ccc(N)c([N+](=O)[O-])c2)n1 [Test compound 2, (S)-N-(1-(2-((4-amino-3-nitrophenyl)amino)-6-propylpyrimidin-4-yl)pyrrolidin-3-yl)acetamide hydrochloride]
